The data set in a line: in vitro. To be noted: human, hela cells, % viability.

The structures appear in SMILES notation.

As to `O=C(/C=C/c1cccc([N+](=O)[O-])c1)Nc1ccc(Cl)c(-c2nc3ccccc3o2)c1` [CBK264610], the viability at 28.5 h, 10 µM was 102%.

`O=C(c1ccco1)N1CCN(c2cncc(-c3cccc4cccnc34)n2)CC1` [CBK037339]: the viability at 28.5 h, 10 µM was found to be 96.9%.

On to `Cc1nn2c(N)ncnc2c1-c1ccc(Cl)cc1` [CBK287880], for which the viability at 28.5 h, 10 µM worked out at 68.8%.

With `COc1ccc(CN2CCN(c3nccnc3OC3CCCCC3)CC2)cc1` [CBK082830T], the viability at 28.5 h, 10 µM was 115%.

Regarding `Cc1cc2ncc3c(n2n1)CC1CCC3N1C(=O)CCn1cccc1` (centres unmarked) [CBK283157], the viability at 28.5 h, 10 µM worked out at 109%.

`Cc1ccc(CN(CCCn2ccnc2)Cc2c[nH]cn2)s1` [CBK283136]: the viability at 28.5 h, 10 µM stood at 95.1%.

Turning to `O=C1NCCNC(=O)C2(CCCCOc3ccccc31)CCNCC2` [CBK292074], the viability at 28.5 h, 10 µM was found to be 108%.

On to `CCN(CC(=O)Nc1ccccc1OC)S(=O)(=O)c1ccccc1` [CBK269428], for which the viability at 28.5 h, 10 µM is 97.1%.

With `Cc1ncccc1COC(=O)N1Cc2ccccc2C1` [CBK200138], the viability at 28.5 h, 10 µM worked out at 91.1%.

Turning to `CN(C)c1ccc(C(=O)N2CC[C@@H](CC(=O)O)[C@@H](CC3=NCCc4ccccc43)C2)cc1` [CBK289159], the viability at 28.5 h, 10 µM was determined as 94.8%.

In the case of `CC(=O)NCc1cccc(-c2cncc(C(=O)Nc3ccc4c(c3)OCCO4)c2)c1` [CBK161009T], the viability at 28.5 h, 10 µM came to 82.1%.

As for `CC(=O)NC1(c2ccc(F)cc2)CCN(C(=O)C2CCC2)CC1` [CBK283492], the viability at 28.5 h, 10 µM is 109%.

For the compound `OCC1CCCCC1NCCCC(c1ccc(F)cc1)c1ccc(F)cc1` (centres unmarked) [CBK015830C], the viability at 28.5 h, 10 µM was 104%.

In the case of `CC1CCc2n[nH]c(C(=O)NC3CN4CCC3CC4)c2C1` (centres unmarked) [CBK283193], the viability at 28.5 h, 10 µM came to 108%.

As to `Cc1c(C(=O)N(C)Cc2nc(C(F)(F)F)cs2)nnn1C1CCNCC1` [CBK304315C], the viability at 28.5 h, 10 µM was found to be 106%.

With `COc1ccc(C)cc1C1(CNC(=O)C2CC(O)CN2)CCOCC1` (centres unmarked) [CBK304162], the viability at 28.5 h, 10 µM is 92%.

For the compound `Cc1nc(NS(=O)(=O)c2c(C)noc2C)sc1C(=O)N1CCOCC1` [CBK050574], the viability at 28.5 h, 10 µM amounted to 98.4%.

Take `CS(=O)(=O)CCNC(=O)c1cnc(-c2ccc(F)cc2)c(-c2cccnc2)c1` [CBK038066]: the viability at 28.5 h, 10 µM worked out at 88%.

For the compound `COc1cc(CNCc2ccco2)ccc1OCC(N)=O` [CBK270204C], the viability at 28.5 h, 10 µM worked out at 105%.

For the compound `COc1ccc2ccccc2c1CNCCCN1CCOCC1` [CBK278209C], the viability at 28.5 h, 10 µM was determined as 93.8%.

With `OC(CNCc1ccc2c(c1)OCO2)COc1ccc(SC(F)(F)F)cc1` (centres unmarked) [CBK074691], the viability at 28.5 h, 10 µM amounted to 120%.

In the case of `O=C(c1ccncc1)N1CCCn2nc(-c3cccnc3)cc2C1` [CBK288607], the viability at 28.5 h, 10 µM came to 88.7%.

For the compound `COc1ccccc1-n1nc(-c2ccncc2)nc1C(C)NS(C)(=O)=O` (centres unmarked) [CBK306868], the viability at 28.5 h, 10 µM is 98%.

With `Cc1ccc(S(=O)(=O)NCCN2CCN(S(=O)(=O)c3ccc(C)cc3)CC2)cc1` [CBK265461], the viability at 28.5 h, 10 µM is 115%.

For the compound `COc1cc(/C=C(/C#N)c2ccc(C(=O)O)cc2)ccc1OCc1cccc([N+](=O)[O-])c1` [CBK269057], the viability at 28.5 h, 10 µM is 108%.

Regarding `O=C(O)/C(=N\O)c1ccc(CCc2ccccc2)s1` [CBK261213], the viability at 28.5 h, 10 µM stood at 90.8%.

With `Cc1ccc(C2(CNC(=O)CCc3ccncc3)CCOCC2)cc1` [CBK281574], the viability at 28.5 h, 10 µM turned out to be 93.7%.

Consider `CSc1ccccc1C(=O)NCCCn1ccnc1` [CBK269749], for which the viability at 28.5 h, 10 µM came out at 85.3%.

As to `Cc1ccccc1C(c1cnccn1)N(C)C(=O)C1CCN(S(=O)(=O)C(C)C)CC1` (centres unmarked) [CBK060242], the viability at 28.5 h, 10 µM turned out to be 101%.

With `Cc1nn(-c2ncccn2)c2c1C(C(=O)c1ccccc1)CC(=O)N2` (centres unmarked) [CBK287890], the viability at 28.5 h, 10 µM came out at 93.2%.

Regarding `Cc1cccc2c3c([nH]c12)CCN(C(=O)C(C)N1CCOCC1)C3` (centres unmarked) [CBK281600], the viability at 28.5 h, 10 µM is 89.2%.

Regarding `CN(C)CC(C)(C)CNC(=O)c1ccccc1-n1cccc1` [CBK149600], the viability at 28.5 h, 10 µM came to 92.3%.

With `CCc1nn2c(C3CCNCC3)ccnc2c1-c1cccs1` [CBK284226], the viability at 28.5 h, 10 µM stood at 80.4%.

For `Cc1nc(C)c(C(=O)N2CCCC(c3cc4cccnc4[nH]3)C2)s1` (centres unmarked) [CBK284995], the viability at 28.5 h, 10 µM turned out to be 97.4%.

Regarding `COc1cc2ncnc(NCc3ccccc3)c2cc1OC` [CBK287984], the viability at 28.5 h, 10 µM stood at 79.7%.

As to `NCC1CCN(c2nc(-c3cc(C(F)(F)F)cc(C(F)(F)F)c3)cnc2N)CC1` [CBK063960], the viability at 28.5 h, 10 µM is 87.3%.

Turning to `Cc1[nH]c2ccc(C(=O)N(Cc3ccccc3)C3CC3)cc2c1C` [CBK297913], the viability at 28.5 h, 10 µM amounted to 89.1%.

For `O=C(Nc1cccc2ccccc12)C1CCC(C(=O)Nc2cccc3ccccc23)CC1` (centres unmarked) [CBK268706], the viability at 28.5 h, 10 µM was found to be 81.9%.

For the compound `Cc1ccc(CNC(=O)Cc2ccc(-c3ccc(CN4CCC(C)CC4)cc3)nc2)cc1F` [CBK158402], the viability at 28.5 h, 10 µM was found to be 97.4%.

As to `O=C(CCNc1n[nH]c(=O)[nH]c1=O)N/N=C\c1ccccc1F` [CBK263093], the viability at 28.5 h, 10 µM stood at 86.3%.

Take `CC(=O)Nc1ccc(Nc2cc(C)nc(-n3nc(C)cc3C)n2)cc1` [CBK287746]: the viability at 28.5 h, 10 µM worked out at 103%.

`Brc1ccc2[nH]c3c(c2c1)CCOC31CCN(CC2CCCCO2)CC1` (centres unmarked) [CBK040648]: the viability at 28.5 h, 10 µM came to 87.8%.

As for `O=C(NC(C(=O)O)C12CC3CC(CC(C3)C1)C2)c1ccc([N+](=O)[O-])cc1` (centres unmarked) [CBK261405], the viability at 28.5 h, 10 µM turned out to be 94.7%.

As for `Cc1cc(C(=O)NCc2cccnc2N(C)C2CCCCC2)nn1C` [CBK306577], the viability at 28.5 h, 10 µM amounted to 69.6%.

On to `COCc1ccc(-c2nccnc2NS(=O)(=O)c2c(C)noc2C)cc1` [CBK049656], for which the viability at 28.5 h, 10 µM worked out at 122%.

Turning to `O=C(NCCn1nc(-c2cccs2)oc1=O)C1CCCCC1` [CBK282343], the viability at 28.5 h, 10 µM was found to be 105%.

In the case of `CCc1noc(C)c1C(=O)Nc1cccc(Cn2cc(Cl)cn2)c1` [CBK268127], the viability at 28.5 h, 10 µM worked out at 97.6%.

Take `Cc1[nH]nc(O)c1C(c1ccc(OC(=O)c2ccc(F)cc2)cc1)c1c(O)n[nH]c1C` [CBK264816]: the viability at 28.5 h, 10 µM turned out to be 96.8%.

As for `CNC(=O)Nc1ccc(C(C)(C)C)cc1Br` [CBK086434], the viability at 28.5 h, 10 µM is 111%.

Turning to `COc1ccc(C)cc1N(CC(=O)Nc1ccccc1C(=O)O)S(C)(=O)=O` [CBK264009], the viability at 28.5 h, 10 µM was 94.4%.

As to `O=c1n(-c2ccc(Cl)c(Cl)c2)ccn1S(=O)(=O)CCc1cccc2ccccc12` [CBK106668], the viability at 28.5 h, 10 µM came out at 106%.

As for `CN(C)C(=O)CN1C(=O)N2CCCN=C2c2ccc(Cl)cc21` [CBK284392], the viability at 28.5 h, 10 µM stood at 98.2%.

As for `CC(C)[C@@H](CO)n1c(=O)[nH]c2ncc(-c3cccc4ccccc34)nc21` [CBK064961], the viability at 28.5 h, 10 µM stood at 98.6%.

Turning to `COc1ccc(-c2nc(NC(=O)C3CCC(OC)CC3)cnc2-c2ccc(F)cc2)cc1` (centres unmarked) [CBK037004], the viability at 28.5 h, 10 µM worked out at 88.4%.

As to `CC(=O)NCCN1CCC(O)(c2ccc(C)cc2)CC1` [CBK283321], the viability at 28.5 h, 10 µM worked out at 87.6%.

On to `Cc1ccc(OCc2ccccc2)c(C(CCN(C(C)C)C(C)C)c2ccccc2)c1` (centres unmarked) [CBK017906], for which the viability at 28.5 h, 10 µM is 108%.

Turning to `c1ccc(-c2nc3ccccc3nc2N2CCNCC2)cc1` [CBK269574C], the viability at 28.5 h, 10 µM came to 85%.

Consider `Cc1cc(C)n(CCCC(=O)NCCc2cn3ccccc3n2)n1` [CBK304414], for which the viability at 28.5 h, 10 µM turned out to be 94.6%.

Regarding `CN(C)C(=O)C1(Cc2ccccc2-c2ccccc2)CCN(C(=O)c2cccc(F)c2)CC1` [CBK285675], the viability at 28.5 h, 10 µM turned out to be 111%.

Consider `Brc1ccccc1OCCc1ccccc1` [CBK004519], for which the viability at 28.5 h, 10 µM was 95.4%.

With `O=C(O)C1CCCN(C(=O)CCc2c[nH]c3ccccc23)C1` (centres unmarked) [CBK286925], the viability at 28.5 h, 10 µM stood at 88.6%.

Regarding `O=C(CSc1nc2ccccc2n1Cc1ccccc1)N/N=C/c1ccco1` [CBK263174], the viability at 28.5 h, 10 µM stood at 89.6%.

On to `Cc1nccn1CC1(O)CCN(C(=O)Cc2cccc(F)c2)CC1` [CBK282184], for which the viability at 28.5 h, 10 µM worked out at 109%.

In the case of `COCCNc1cc(-c2ccncc2)ncn1` [CBK037729], the viability at 28.5 h, 10 µM worked out at 87.6%.

Regarding `COC(=O)Nc1ccc(S(=O)(=O)N2CCCC(C(=O)O)C2)cc1` (centres unmarked) [CBK265364], the viability at 28.5 h, 10 µM came to 98.5%.

As to `CN1CCN(c2nccnc2-c2ccoc2)CC1` [CBK088834], the viability at 28.5 h, 10 µM was 98.6%.

For `O=C(CN(c1ccc(F)cc1)S(=O)(=O)c1ccccc1)Nc1ccc2c(c1)OCCO2` [CBK265215], the viability at 28.5 h, 10 µM was determined as 94.8%.

On to `CC(NC(=O)CCC1CCCC1)c1nc(-c2ccncc2)cs1` (centres unmarked) [CBK305819], for which the viability at 28.5 h, 10 µM turned out to be 86.9%.

In the case of `OC(COc1ccc(OC(F)(F)F)cc1)CN1CCN(c2nc3ccc(Cl)cc3s2)CC1` (centres unmarked) [CBK074639], the viability at 28.5 h, 10 µM turned out to be 122%.

Take `COc1ccc(CCNC(=O)N(CCC#N)C2CCCCC2)cc1OC` [CBK156363]: the viability at 28.5 h, 10 µM is 108%.

Turning to `CCCC/C=C/c1cccc(Nc2cccnc2)n1` [CBK037645], the viability at 28.5 h, 10 µM came to 103%.

`O=C(O)c1ccc(Br)c(S(=O)(=O)Nc2ccc(Cl)cc2)c1` [CBK263247]: the viability at 28.5 h, 10 µM was 98%.

Regarding `O=S(=O)(c1cc(Cl)ccc1Cl)N1CCSC1` [CBK097980], the viability at 28.5 h, 10 µM turned out to be 99.4%.

Turning to `O=C1NC(=S)NC(=O)C1=NNc1ccccc1C(=O)O` [CBK262231], where the note is “bulk resorufin, single well”, the viability at 28.5 h, 10 µM was found to be 99.6%.

For the compound `COc1cccc2cc(C(=O)C3=C(O)C(=O)N(CCN4CCOCC4)C3c3cccc(Cl)c3)oc12` (centres unmarked) [CBK266599], the viability at 28.5 h, 10 µM came to 100%.

On to `COc1ccc2c(c1)C(=O)NC1(CC2)CCN(Cc2ccccc2)C1` (centres unmarked) [CBK283343], for which the viability at 28.5 h, 10 µM is 95.2%.

`O=C(NC1CC1)[C@H]1CN(Cc2ccccc2)C[C@@H]1C(=O)c1ccccc1` [CBK285264]: the viability at 28.5 h, 10 µM worked out at 105%.

As for `CC(=O)N1CCc2cc(NCc3nc4ccccc4n3C(C)c3ccccc3)ccc21` (centres unmarked) [CBK285621], the viability at 28.5 h, 10 µM is 81.7%.

For the compound `Cc1noc(C)c1CC(=O)N(C)CCN1CCCCC1` [CBK281855], the viability at 28.5 h, 10 µM is 88.8%.

As for `O=C(NCc1ccccn1)C(=O)N/N=C/c1ccccc1[N+](=O)[O-]` [CBK262204], the viability at 28.5 h, 10 µM is 96.4%.

One may read the viability as a read-out of living cells in per cent, often relative to untreated cells.

(Values after article PMC12040169 (PLOS Biology, 2025).)
